Experimental data published in patent US20250332178A1, “METHODS OF TREATING MYCOBACTERIAL INFECTIONS USING TETRACYCLINE COMPOUNDS” (priority 2018, published 2025).

Experiments:
M. arupense = test: MIC (CLSI broth dilution), slow-growing NTM isolates; type: cell-based; conditions: isolate 11, Other
M. simiae = test: as above; type: cell-based
M. abscessus = conditions: strains of M. abscessus; Wallace et al.; cited from earlier work
M. chimaera = test: MIC (CLSI broth dilution), slow-growing NTM isolates; type: cell-based
[1] = test system: slow-growing NTM isolates; test: MIC (CLSI broth dilution), all slow-growing NTM isolates; type: cell-based, nontuberculous mycobacteria; conditions: all slow-growing NTM isolates
M. avium = test: MIC (CLSI broth dilution), slow-growing NTM isolates; type: cell-based
M. intracellulare = test: as above; type: cell-based
[2] = test system: Bacille Calmette Guerin (BCG); type: cell-based, Mycobacterium bovis; conditions: disk: 15 μg of clarithromycin

C[C@H]1c2cccc(O)c2C(=O)C2=C(O)[C@]3(O)C(=O)C(C(N)=O)=C(O)[C@@H](N(C)C)[C@@H]3[C@@H](O)[C@@H]21 [Doxycycline, doxycycline]
very low activity: in vitro activity (in words) (M. abscessus)
16 µg/mL: MIC (M. arupense)
>16 µg/mL: MIC (M. simiae; isolate 13, Other) | MIC (M. simiae; isolate 14, Other) | MIC (M. simiae; isolate 15, Other)

NCC[C@H](O)C(=O)N[C@@H]1C[C@H](N)[C@@H](O[C@H]2O[C@H](CN)[C@@H](O)[C@H](O)[C@H]2O)[C@H](O)[C@H]1O[C@H]1O[C@H](CO)[C@@H](O)[C@H](N)[C@H]1O [Amikacin, amikacin]
32 µg/mL: MIC (M. simiae; isolate 13, Other) | MIC90 [1] | MIC (M. avium; isolate 1, MAC)
16 µg/mL: MIC (M. simiae; isolate 14, Other) | MIC (M. simiae; isolate 15, Other) | MIC50 [1] | MIC (M. avium; isolate 2, MAC) | MIC (M. intracellulare; isolate 8, MAC) | MIC (M. intracellulare; isolate 9, MAC) | MIC (M. intracellulare; isolate 10, MAC)
8 µg/mL: MIC (M. arupense) | MIC (M. chimaera; isolate 4, MAC) | MIC (M. chimaera; isolate 5, MAC) | MIC (M. avium; isolate 3, MAC) | MIC (M. intracellulare; isolate 6, MAC) | MIC (M. intracellulare; isolate 7, MAC)

CC[C@H]1OC(=O)[C@H](C)[C@@H](O[C@H]2C[C@@](C)(OC)[C@@H](O)[C@H](C)O2)[C@H](C)[C@@H](O[C@@H]2O[C@H](C)C[C@H](N(C)C)[C@H]2O)[C@](C)(OC)C[C@@H](C)C(=O)[C@H](C)[C@@H](O)[C@]1(C)O [clarithromycin]
45 mm clear zone: clear zone [2]
